We go through 8 compounds from patent publication US10507209B2, “Quinazoline derivatives substituted by aniline, preparation method and use thereof” (XUANZHU PHARMA CO., LTD., priority 2010, dated 2019).

Structures are written as SMILES. Where a name gives a salt, the structure may show the parent alone. Read-outs that look alike come from different tables or passages of the source. Marks after values point to notes of the source that are not given here.

Series [1] relates to human-derived LN-229 glioblastoma xenograft. Kind of series: In vivo pharmacodynamic evaluation, human-derived LN-229 glioblastoma xenograft. Set-up: species or system BALB/c nude mice. The following applies: 28 days after the administration. Background: Xenograft models place foreign cells or tissue in a host animal.
Series [2] concerns human-derived xenograft model HN2170. Briefly: In vivo pharmacodynamic evaluation, head and neck cancer xenograft model HN2170. To be noted: for Tumor Volume (Day 0): Day 0 (grouping, baseline); for T/C / TGI / Tumor Volume: 25 days after the administration. Set-up: species or system BALB/c nude mice. As for the experimental part: HN2170, head and neck cancer from a patient.
They were administered totally 25 days.

A further series concerns H1975 cells. Kind of series: In vitro cellular inhibitory activity on H1975 (XTT). In kind it is cell-based. The following applies: Homo sapiens, NCI-H1975, 72 hours. An excerpt:
Table 2 in vitro cellular inhibitory activities on H1975 (NSCLC, nonsmall-cell lung cancer)
(In general: Tetrazolium assays rely on reduction of a dye to a coloured formazan, in cell work by metabolically active cells.)

For a further series, the system named is Calu-3 cells. Kind of series: In vitro cellular inhibitory activity on Calu-3 (XTT). Type of series: cell-based. The following applies: Homo sapiens, 72 hours. The source says:
Table 3 in vitro cellular inhibitory activities on Calu-3 (NSCLC nonsmall-cell lung cancer)

The subject of a further series is A431 cells. Briefly: In vitro cellular inhibitory activity on A431 (XTT). To be noted: Homo sapiens, A-431, 72 h, read-out: IC50 A431 cells. Type of series: cell-based.
Series [3] has as its system SKOV-3 human-derived xenografts model in ovarian cancer. Briefly: In vivo pharmacodynamic evaluation, SKOV-3 human-derived xenografts model in ovarian cancer. To be noted: 14 days after the administration. Set-up: species or system BALB/c nude mice. Here is the method:
The tumor was then stripped under sterile conditions to remove the necrotic tissues and select the well developed tumor tissues which were inoculated subcutaneously into an animal again. In this way the tumor tissues were subjected to passage for twice in the body of the mice. […] The tumor blocks were inoculated subcutaneously to the right coastal region of the mice with an inoculation needle. […] The tumor size was measured twice a week with an […] caliper.

The next series deals with NCI-N87 cell. Briefly: In vitro cellular inhibitory activity on NCI-N87 gastric carcinoma cells (XTT). Type of series: cell-based. To be noted: Homo sapiens, read-out: IC50 NCI-N87 cell.
Series [4] deals with gallbladder carcinoma xenografts model GL6899. Kind of series: In vivo pharmacodynamic evaluation, gallbladder carcinoma xenografts model GL6899. Further details: species or system BALB/c nude mice. Here is the method: GL6899, gallbladder carcinoma from a patient
Comparison between the two groups of data was tested by independent sample t test.

In series [5] the test system is human-derived cholangiocarcinoma (10114) xenograft model. Briefly: In vivo pharmacodynamic evaluation, human-derived cholangiocarcinoma (10114) xenograft model. Further details: species or system BALB/c nude mice. Here is the method:
10114, cholangiocarcinoma from a patient.
Tumor tissues of human cholangiocarcinoma (10114) were cut into tumor blocks of volume of 3 mm×3 mm×3 mm which were inoculated subcutaneously in mice. The tumor volume was observed and measured. […] The efficacy was evaluated according to the tumor growth inhibition (TGI).
The experimental data were analyzed using statistical software SPSS 20.0. The data associated with the tumor volume was analyzed with T-test. **P<0.05 compared with the control group represents significant statistical difference.

The subject of another series is BT474 cells. Kind of series: In vitro cellular inhibitory activity on BT474 mammary cancer cells (XTT). In kind it is cell-based. To be noted: Homo sapiens, BT-474, 72 hours.
A further series has as its system 5637 cells. Briefly: In vitro cellular inhibitory activity on 5637 bladder carcinoma cells (CTG kit). To be noted: Homo sapiens, 72 hours. In kind it is cell-based. As for the experimental part: The effect of the compound to be tested on 5637 (bladder carcinoma) cell proliferation was tested using CTG kit.
535 μl DMSO was added into an EP tube filled with 3.32 mg of Compound 18 and evenly shaken (10 mM);
590 μl DMSO was added into an EP tube filled with 3.16 mg of Compound AZD9291 and evenly shaken (10 mM);
The compound was diluted with DMSO by 4-fold from 10 mM to 2.5 mM, 625 μM, 156 μM, 39 μM, 9.8 μM, 2.4 μM, 0.61 μM, 0.15 μM, 0.04 μM in turn.
Formulating a stock solution of a 10-fold compound: 2 μl 1000-fold Compound 18 or AZD9291 was respectively added into a 198 μl culture medium and evenly shaken.
1) Plating in the 384-well plate with 250 cells/well/22.5 ul;
2) After 24 hours, each well was added with 2.5 ul 10-fold drug which was well diluted to make the final concentration of 10 μM, 2.5 μM, 625 nM, 156 nM, 39 nM, 9.8 nM, 2.5 nM, 0.610 nM, 0.153 nM, 0.04 nM.
3) The plate was placed in the CO2 incubator and incubated at 37° C. for 72 hours
2) Each well was added with 25 ul CellTiter-Glo® agent, mixed for 2 minutes and placed at room temperature while being kept in darkness for 10 minutes.
3) Reading the […] using EnVision 2104 Multilabel Reader.

For series [6], the system named is KYSE270 human esophageal carcinoma model. The following applies: for Relative Tumor Volume / T/C / TGI / Tumor Volume: 21 days after the administration.
The mark [7] stands for this setting: 20 mg/kg p.o. once a day, 21 days.
Where [8] appears, read: 20 mg/kg oral once a day, 21 days after the administration.

Protocol for BT474 cells: BT474 cells (human breast ductal carcinoma cell, purchased from ATCC). […] The maximum concentration of the test compound was 10 μM, and there were 10 concentration gradients in total. For each compound, the operation was duplicated. […] 2) The plate was placed in the CO2 cell incubator and incubated at 37° C. for 72 hours. 2) The culture medium was removed; each well was added with 150 μl XTT working solution. […] 4) Slightly and evenly shaking before reading the absorbance.
Protocol for NCI-N87 cell: For each compound, the above operation was triplicated. […] 2) The plate was placed in the CO2 incubator and incubated at 37° C. for 72 hours. 2) The culture medium was removed and each well was added with 150 μl XTT working solution. […] 4) Slightly and evenly shaking before reading the absorbance.

In general, T/C refers to the ratio of treated to control. `CCOc1cc2ncc(C#N)c(Nc3ccc(OCc4ccccn4)c(Cl)c3)c2cc1NC(=O)/C=C/CN(C)C` [Neratinib, reference compound]: in series [1] (80 mg/kg oral once a day), the T/C is 34.3%, the TGI is on record as 65.7% and the “Tumor Volume” value was found to be 197 ± 20 mm^3. Besides, the “Tumor Volume (Day 0)” value in series [2] (80 mg/kg group) came out at 142.4 ± 23.4 mm^3. Moreover, in series [2] (80 mg/kg oral once a day), the T/C is listed as 7.2%, the TGI is 92.8% and the “Tumor Volume” value is given as 53.7 ± 10.3*** mm^3.
For the compound `CS(=O)(=O)CCNCc1ccc(-c2ccc3ncnc(Nc4ccc(OCc5cccc(F)c5)c(Cl)c4)c3c2)o1` [Lapatinib ditosylate, lapatinib ditosylate, reference compound], the IC50 is 4530 nM in the series with H1975 cells and 94.3 nM with Calu-3 cells.
For the compound `C=CC(=O)Nc1cc2c(Nc3ccc(F)c(Cl)c3)ncnc2cc1OCCCN1CCOCC1` [CI-1033 hydrochloride, reference compound], the IC50 with H1975 cells is 157 nM; in the series with Calu-3 cells, 686 nM; in the series with A431 cells, 402 nM.
Take `C#Cc1cccc(Nc2ncnc3cc(OCCOC)c(OCCOC)cc23)c1` [Erlotinib hydrochloride, erlotinib hydrochloride, reference compound]: the IC50 in the series on H1975 cells stood at 3980 nM; in the series on Calu-3 cells it was 1320 nM.
For the compound `CS(=O)(=O)CCNCc1ccc(-c2ccc3ncnc(Nc4ccc(OCc5cccc(F)c5)c(Cl)c4)c3c2)o1` [Lapatinib, reference compound], in series [3] (80 mg/kg oral once a day), the T/C was 83.4% and the “Tumor Volume” value amounted to 1339 ± 167 mm^3. For the same compound, in the series on NCI-N87 cell (NCI-N87, 72 h), the IC50 amounted to 11.9 nM. In [1] (200 mg/kg oral once a day), the T/C came out at 45.6%, the TGI stood at 54.4% and the “Tumor Volume” value stood at 261 ± 42 mm^3.
Consider `C=CC(=O)Nc1cc2c(Nc3ccc(F)c(Cl)c3)ncnc2cc1OCCC1CC2(CCN(C)CC2)C1` [Compound 19 hydrochloride, N-[4-(3-chloro-4-fluorophenylamino)-7-(2-(7-methyl-7-azaspiro[3.5]nonan-2-yl)ethoxy)quinazolin-6-yl]-acrylamide hydrochloride], for which, in the series on H1975 cells, the IC50 was determined as 104 nM.
In turn, `C=CC(=O)Nc1cc2c(Nc3ccc(F)c(Cl)c3)ncnc2cc1OCC[C@@H]1[C@H]2CN(C)C[C@@H]12` [Compound 8] showed an IC50 in the series on H1975 cells of 306 nM. Besides, in series [1] (30 mg/kg oral once a day), the T/C is reported as 21.3%, the TGI was 78.7% and the “Tumor Volume” value was 121 ± 17 mm^3.
With `C=CC(=O)Nc1cc2c(Nc3ccc(F)c(Cl)c3)ncnc2cc1OCC1CC2(CCN(C)CC2)C1` [Compound 18, N-[4-(3-chloro-4-fluorophenylamino)-7-((7-methyl-7-azaspiro[3.5]nonan-2-yl)methoxy)quinazolin-6-yl]-acrylamide], the IC50 was 92.3 nM in the series with H1975 cells; 7.1 nM in the series on NCI-N87 cell (NCI-N87, 72 hours, XTT); 38.2 nM in the series on Calu-3 cells; 9.7 nM in the series with BT474 cells; 38.6 nM with 5637 cells. Also, the T/C in series [3] (10 mg/kg oral once a day) is 49.1%; in series [3] (20 mg/kg oral once a day), 32.1%; in series [1] (10 mg/kg oral once a day), 45.6%; in [1] (20 mg/kg oral once a day) it was 34.0%; in series [4] (setting [7]) it was 2.6%; in series [5] (setting [8]) it was 18.1%. Moreover, the results for the T/C in [2] (20 mg/kg oral once a day), in [6] (10 mg/kg oral once a day) and in [6] (20 mg/kg oral once a day) were 6.5%, 2% and 1%, respectively. Further, the TGI in series [3] (10 mg/kg oral once a day) is given as 50.9%; in series [3] (20 mg/kg oral once a day), 67.9%; in series [1] (10 mg/kg oral once a day), 54.4%; in [1] (20 mg/kg oral once a day) it was 66.0%; in series [4] (setting [7]), 97.4%; in [5] (setting [8]), 81.9%. The TGI in [2] (20 mg/kg oral once a day) is reported as 93.5%; in [6] (10 mg/kg oral once a day), 98%; in series [6] (20 mg/kg oral once a day), 99%. For the same compound, the “Tumor Volume” value in series [3] (10 mg/kg oral once a day) is 798 ± 88 mm^3; in series [3] (20 mg/kg oral once a day) it was 540 ± 86 mm^3; in series [1] (10 mg/kg oral once a day) it was 260 ± 27 mm^3; in [1] (20 mg/kg oral once a day), 191 ± 11 mm^3; in series [5] (setting [8]), 107.53 ± 15.80*** mm^3; in series [2] (20 mg/kg oral once a day), 46.3 ± 10.6*** mm^3. Also, the “Tumor Volume” value in series [6] (10 mg/kg oral once a day) is on record as 40 ± 6 mm^3; in [6] (20 mg/kg oral once a day), 14 ± 3 mm^3. In addition, the “Tumor Volume on day 0” value in series [4] (20 mg/kg group, day 0 (grouping, baseline)) was 135.53 ± 9.60 mm^3. In series [4] (setting [7]), the “Tumor Volume after adminstration of 21 days” value was 26.63 ± 2.37*** mm^3. The “Tumor Volume On Day 0” value in series [5] (20 mg/kg group, Day 0 (grouping, baseline)) turned out to be 138.6 ± 8.9 mm^3. Besides, the “Relative Tumor Volume” value in series [5] (setting [8]) came out at 77.13 ± 9.34%; in [6] (10 mg/kg oral once a day), 0.33 ± 0.05; in [6] (20 mg/kg oral once a day) it was 0.11 ± 0.02. In addition, the “Tumor Volume (Day 0)” value in series [2] (20 mg/kg group) is given as 143.1 ± 22.9 mm^3. Further, the “Tolerability in mice with tumor” value in series [6] (10 mg/kg and 20 mg/kg) is given as “can tolerate the tested drugs well”.
